Results: ChEMBL document CHEMBL3885861, “Open TG-GATES”

Organism: Rattus norvegicus
Assay: Open TG-GATES - Regimen: Single
Format: toxicity, organism-based, Sprague-Dawley
Parameters: regimen Single, gender Male, age 6 weeks
Conditions: in vivo, iv, route intravenous injection; for Bas / Eos / Fbg / Ht / Lym / MCHC / MCV / Mono / PT / Plat / RBC / Ret / WBC / APTT / Hb / MCH / Neu: tissue Blood; for KIDNEY_L / KIDNEY_R / KIDNEY_TOTAL: tissue Kidney; for LIVER: tissue Liver
[1] = 0 mg/kg, 3 h, dose level Control
[2] = 0 mg/kg, 3 h, tissue Plasma, dose level Control
[3] = 0 mg/kg, 6 h, dose level Control
[4] = 0 mg/kg, 6 h, tissue Plasma, dose level Control
[5] = 0 mg/kg, 9 h, dose level Control
[6] = 0 mg/kg, 9 h, tissue Plasma, dose level Control
[7] = 0 mg/kg, 24 h, dose level Control
[8] = 0 mg/kg, 24 h, tissue Plasma, dose level Control
[9] = 1 mg/kg, 3 h, dose level Middle
[10] = 1 mg/kg, 3 h, tissue Plasma, dose level Middle
[11] = 1 mg/kg, 6 h, dose level Middle
[12] = 1 mg/kg, 6 h, tissue Plasma, dose level Middle

CISPLATIN
TERMINAL_BW [1]: 217.6 g
Bas [1]: 0%
Eos [1]: 1%
Fbg [1]: 292.4 mg/dL
Ht [1]: 40.6%
Lym [1]: 82.4%
MCHC [1]: 32.6%
MCV [1]: 65.7 fL
Mono [1]: 2.2%
PT [1]: 15.3 s
Plat [1]: 125.7 x10_4/uL
RBC [1]: 617.8 x10_4/ul
Ret [1]: 6.8%
WBC [1]: 111 x10_2/uL
KIDNEY_L [1]: 1 g
KIDNEY_R [1]: 1 g
KIDNEY_TOTAL [1]: 1.9 g
ALP [2]: 1441.2 IU/L
ALT [2]: 48.4 IU/L
AST [2]: 80.6 IU/L
BUN [2]: 13.6 mg/dL
CRE [2]: 0.2 mg/dL
Ca [2]: 11 mg/dL
DBIL [2]: 0 mg/dL
IP [2]: 8.7 mg/dL
K [2]: 4.2 meq/L
LDH [2]: 188.6 IU/L
PL [2]: 126.6 mg/dL
RALB [2]: 2.9 g/dL
TBIL [2]: 0.02 mg/dL
TC [2]: 71 mg/dL
TG [2]: 54.8 mg/dL
TP [2]: 5.4 g/dL
gamma-GTP [2]: 2 IU/L
TERMINAL_BW [3]: 210.4 g
APTT [3]: 22.8 s
Bas [3]: 0%
Eos [3]: 1%
Fbg [3]: 275.4 mg/dL
Hb [3]: 13 g/dL
Ht [3]: 39.7%
Lym [3]: 83.4%
MCH [3]: 21.1 pg
MCHC [3]: 32.7%
MCV [3]: 64.3 fL
Mono [3]: 3%
Plat [3]: 115.2 x10_4/uL
RBC [3]: 617.6 x10_4/ul
Ret [3]: 6.5%
WBC [3]: 152.3 x10_2/uL
KIDNEY_L [3]: 0.9 g
KIDNEY_R [3]: 1 g
KIDNEY_TOTAL [3]: 1.9 g
LIVER [3]: 9.2 g
ALP [4]: 1766.6 IU/L
ALT [4]: 44 IU/L
AST [4]: 76.8 IU/L
BUN [4]: 12.6 mg/dL
CRE [4]: 0.2 mg/dL
DBIL [4]: 0 mg/dL
IP [4]: 9.5 mg/dL
K [4]: 4.5 meq/L
LDH [4]: 165.8 IU/L
Na [4]: 139.2 meq/L
PL [4]: 128.6 mg/dL
RALB [4]: 2.8 g/dL
TBIL [4]: 0 mg/dL
TC [4]: 67.2 mg/dL
TG [4]: 81.6 mg/dL
TP [4]: 5.2 g/dL
gamma-GTP [4]: 1.6 IU/L
TERMINAL_BW [5]: 208.8 g
APTT [5]: 24.1 s
Bas [5]: 0%
Eos [5]: 0.6%
Fbg [5]: 257.6 mg/dL
Hb [5]: 13 g/dL
Ht [5]: 39.9%
Lym [5]: 79.8%
MCHC [5]: 32.7%
MCV [5]: 64 fL
Mono [5]: 2.4%
Neu [5]: 16.4%
Plat [5]: 119.1 x10_4/uL
RBC [5]: 623 x10_4/ul
Ret [5]: 5.8%
WBC [5]: 90.6 x10_2/uL
KIDNEY_L [5]: 0.9 g
KIDNEY_R [5]: 1 g
KIDNEY_TOTAL [5]: 1.9 g
LIVER [5]: 8.9 g
ALP [6]: 1337.6 IU/L
ALT [6]: 39.8 IU/L
AST [6]: 74.2 IU/L
BUN [6]: 12.8 mg/dL
CRE [6]: 0.1 mg/dL
DBIL [6]: 0 mg/dL
GLC [6]: 184.8 mg/dL
K [6]: 4.2 meq/L
LDH [6]: 139.8 IU/L
Na [6]: 139.8 meq/L
PL [6]: 130.2 mg/dL
RALB [6]: 2.9 g/dL
TBIL [6]: 0.02 mg/dL
TP [6]: 5.4 g/dL
gamma-GTP [6]: 1.6 IU/L
TERMINAL_BW [7]: 232.1 g
APTT [7]: 22.3 s
Bas [7]: 0%
Eos [7]: 1%
Fbg [7]: 282.6 mg/dL
Ht [7]: 40.2%
Lym [7]: 81.2%
MCH [7]: 21.1 pg
MCV [7]: 65 fL
Mono [7]: 2.8%
Plat [7]: 123 x10_4/uL
RBC [7]: 617.6 x10_4/ul
Ret [7]: 6.3%
WBC [7]: 84 x10_2/uL
KIDNEY_L [7]: 1 g
KIDNEY_R [7]: 1.1 g
KIDNEY_TOTAL [7]: 2.1 g
ALP [8]: 1431.4 IU/L
ALT [8]: 47.4 IU/L
AST [8]: 74.8 IU/L
BUN [8]: 17.2 mg/dL
CRE [8]: 0.2 mg/dL
DBIL [8]: 0 mg/dL
IP [8]: 7.7 mg/dL
K [8]: 4.4 meq/L
LDH [8]: 177.8 IU/L
PL [8]: 150.4 mg/dL
RALB [8]: 3 g/dL
TBIL [8]: 0.014 mg/dL
TC [8]: 80.2 mg/dL
TG [8]: 98.4 mg/dL
TP [8]: 5.6 g/dL
gamma-GTP [8]: 1.6 IU/L
TERMINAL_BW [9]: 215.5 g
APTT [9]: 22.6 s
Bas [9]: 0%
Eos [9]: 1%
Fbg [9]: 275.8 mg/dL
Hb [9]: 12.7 g/dL
Ht [9]: 38.9%
Lym [9]: 75%
MCH [9]: 21.1 pg
MCHC [9]: 32.7%
MCV [9]: 64.5 fL
Mono [9]: 2.6%
Plat [9]: 127.7 x10_4/uL
RBC [9]: 602.2 x10_4/ul
Ret [9]: 6.6%
WBC [9]: 89.5 x10_2/uL
KIDNEY_L [9]: 1 g
KIDNEY_R [9]: 1 g
KIDNEY_TOTAL [9]: 2 g
LIVER [9]: 10 g
ALP [10]: 1623.4 IU/L
ALT [10]: 38.8 IU/L
BUN [10]: 13 mg/dL
CRE [10]: 0.2 mg/dL
DBIL [10]: 0 mg/dL
GLC [10]: 175.4 mg/dL
IP [10]: 8.9 mg/dL
K [10]: 4.2 meq/L
LDH [10]: 152.2 IU/L
Na [10]: 139.6 meq/L
PL [10]: 132.4 mg/dL
RALB [10]: 2.8 g/dL
TBIL [10]: 0.014 mg/dL
TC [10]: 75 mg/dL
TG [10]: 80.6 mg/dL
TP [10]: 5.2 g/dL
gamma-GTP [10]: 1.4 IU/L
TERMINAL_BW [11]: 216 g
APTT [11]: 22.5 s
Bas [11]: 0%
Eos [11]: 1%
Fbg [11]: 275 mg/dL
Hb [11]: 13 g/dL
Ht [11]: 39.9%
Lym [11]: 77%
MCHC [11]: 32.6%
MCV [11]: 63.4 fL
Mono [11]: 3%
Neu [11]: 17.8%
PT [11]: 15.4 s
Plat [11]: 128.4 x10_4/uL
RBC [11]: 629.4 x10_4/ul
Ret [11]: 6.1%
WBC [11]: 106.4 x10_2/uL
KIDNEY_L [11]: 1 g
KIDNEY_R [11]: 1 g
KIDNEY_TOTAL [11]: 2 g
LIVER [11]: 9.4 g
ALP [12]: 1530.2 IU/L
ALT [12]: 42.8 IU/L
AST [12]: 75.8 IU/L
CRE [12]: 0.1 mg/dL
DBIL [12]: 0 mg/dL
IP [12]: 9.6 mg/dL
K [12]: 4.4 meq/L
LDH [12]: 159.6 IU/L
Na [12]: 138.6 meq/L
PL [12]: 135.6 mg/dL
RALB [12]: 2.9 g/dL
TBIL [12]: 0 mg/dL
TC [12]: 73.2 mg/dL
TG [12]: 92.2 mg/dL
TP [12]: 5.4 g/dL
gamma-GTP [12]: 2 IU/L
